In patent publication US20080292619A1, “Pharmaceutical Composition Containing Meltrin Antagonist” (MOCHIDA PHARMACEUTICAL CO., LTD., priority 2004, published 2008):
In the oligonucleotide strings, read from the 5' end, every base follows the letter of its sugar. An asterisk marks phosphorothioate; unmarked linkages are phosphodiester. Other units and linkages are bracketed, terminal groups are in braces. A string of capitals states the bases alone. d = 2'-deoxy (DNA)

Legend:
human preadipocyte = experiment: Adipocyte proliferation and differentiation, neutral fat accumulation (Adipo Red); assay type: cell-based; settings: antibody final concentration 5 μL/mL; 15 days; AdipoRed
Method: The differentiation medium was prepared by adding supplement kit PGM SingleQuots, #PT-9500, Lot.08101163 (Sanko Junyaku Co., Ltd.) to 100 mL of growth medium. 50 μL of the supernatant was removed from the 96 well plate prepared in Example 12, and 50 μL of the siRNA or the antisense oligonucleotide prepared in the differentiation medium was added, and incubation was conducted in a CO2 incubator for 5 days to 15 days.
The amount of neutral fat accumulated in the adipocyte was determined by fluorometry using Adipo Red stain.
After taking the 96 well plate out of the CO2 incubator, the plate was allowed to stand until it cooled to room temperature. The plate was centrifuged at 300 g (1200 rpm) for 10 minutes at room temperature to remove the medium. Next, the plate was gently washed with 200 μL/well of PBS (Sigma), and 200 μL/well of PBS was added to the well.
Next, 5 μL/well of Adipo Red Assay Reagent (Adipo Red, Cat. #PT-7009, Lot.3F0497, A Cambrex Company) was added, and the plate was allowed to stand at room temperature for at least 10 minutes to thereby stain the neutral fat that had accumulated in the adipocyte. The fluorescence intensity was measured in a fluorometer at an excitation wavelength of 485 nm and an emission wavelength of 535 nm to thereby determine the fat accumulation.
According to the method of Example 15, M82463 was added to the human preadipocyte incubation system at a concentration of 0.3 to 10 μg/mL so that the final concentration of the DMSO was 0.2%. As a control, a group having only the DMSO added to a final concentration of 0.2% was used.
After preparation of the antibody to the concentration of 0.100 mg/mL with physiological saline, 9 volumes of adipocyte differentiation medium was added to 1 volume of the antibody solution, and the solution was sterilized by filtering through a filter having a diameter of 0.22 μm (MILLEX-GV 0.22 μm Filter unit, 3slgv013SL, Lot. R2NN83622, MILLIPORE). […]

human meltrin α RNA = experiment: Suppression of human meltrin α expression by antisense compound in RD cell (real time PCR); assay type: cell-based; settings: 50 nM; RD cell
Summary of the method: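 RD cells transfected with heat-denatured antisense oligodeoxynucleotide plus Lipofectin in Opti-MEM for 4 h at 37° C, then cultured 18 h. Meltrin α RNA quantified by TaqMan RT-PCR against plasmid standard curve, GAPDH-corrected; suppression vs untreated cells, rated +/++/+++ for ≥30/50/70%.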

Substance: 2 (dC*dT*dG*dG*dT*dT*dA*dA*dT*dG*dG*dT*dT*dC*dA*dC*dA*dT*dC*dT) [compound 2]
- Suppressive effect (human preadipocyte): ++ (suppression by 50% or higher)
- Supression of expression, 50 nM (human meltrin α RNA): ++ (“++” when the suppression rate was at least 50%)
